# Legend:
# [1] = tested on: B16F10 mouse melanoma cells; test: Brain tumor formation (B16F10 cells injected into right front brain), tail vein curcumin; assay type: in vivo, C57BL mouse
# Method: Generation of Tumors. The mice were given food and water ad libitum and subjected to 12 hour dark/12 hour light cycles. To generate brain tumors in mice, B16F10 mouse melanoma cells or GL261 mouse glioma cells (1000 cells in 5 μl PBS per C57BL mouse) were injected into the right front brain [coordinates: with respect to the Bregma (in mm) AP=2.5; L=−1.1; D=1.5] at the rate of 1 μl per minute using a stereotaxic set-up (KDS Model 310plus infusion-withdrawal syringe pump) (Paxinos, G., and Franklin, K. B. J., The mouse brain in stereotaxic coordinates. 2nd ed. 2001, New York: Academic Press). Before the cell injection, the mouse was anesthetized by injecting (sc) xylazine (10 mg/Kg) and ketamine (100 mg/Kg), the head was shaved, and then the head was immobilized on a Stoelting sterotaxic frame. The mouse was determined to be in deep anesthesia by checking for regular, relaxed respiration and the lack of response to tail/toe pinch before its head was immobilized. The head was cleaned with 70% ethanol and then, using a sterile scalpel, a midline incision was made and subcutaneous muscle and fascia retracted to expose the skull. A hole was made in the skull with a dental drill and the cells injected as described above using a Hamilton syringe fitted to the syringe pump. Under the described condition of anesthesia, the mouse remains unconscious for about 90 min. The total time taken for immobilization of the mouse, exposure of the skull, and injection was about 30 min. Thus, the total time required from the injection of anesthetics to the completion of surgery was less than one hour. After the injection, the hole in the skull was sealed with sterile bone wax and the skin and muscle placed back in place with appropriate 7-mm stainless steel clips (Reflex Skin closure system; Cellpoint Scientific). For wound healing, a topical antibiotic (Triple Antibiotic, containing Polymyxin B, Bacitracin, and Neomycin) was applied and for post-operative care the animal was kept in a warm blanket at 35-37° C. taking precautions to avoid thermal injury. On the first day after surgery (day 2), a sterile, 37° C. solution of physiologic saline was administered (IP) at the dose of 1 ml/100 g body weight. The animals were then caged individually with access to food and water and kept under close monitoring. The mice also received acetaminophen (Tylenol syrup) 1 mg/ml in drinking water daily until they returned to complete normalcy in terms of both behavior and appearance (body weight; reduced locomotion, vocalization, lack of grooming, wound scratching; and signs inflammation at the surgical site).
# Curcumin Treatment. The control mice received, aseptically, the carrier (3% DMSO in 200 μl PBS) daily from the next day (day 2), through the tail vein after placing the mouse in a restraining cage without anesthetics. Other mice similarly received 667 μM curcumin in 200 μl of PBS containing 3% DMSO daily from the next day (day 2) for 18 days (through day 19) through the tail vein. Other mice received the same curcumin solution daily from day 4, day 6, day 8 or day 10. One mouse (designated Mouse 2) received a single dose of curcumin (5 μl of 667 μM solution) five minutes after injection of B16F10 cells into the brain, using the same stereotaxic set-up.
# Monitoring and Sample Preparation. The effects of brain tumor on movement generally appeared in about two to three weeks. The mice were monitored for disorders in movement using an open field VIDEO monitoring set up (10 min per mouse). Blood was collected from the saphenous vein to test for markers for cancer and cell and organ damage. Additionally, MRI was performed on the mice to monitor the growth and progression of brain tumors. […]
# [2] = tested on: VEGF; test: Western blot of B16F10 cells, VEGF; assay type: cell-based, mouse; settings: 50 μM
# Method: B16F10 cells were cultured in 10-cm plates and then treated in duplicate with carrier or curcumin (50 μM). Following treatment for appropriate time periods, the cells were washed with PBS, lysed in RIPA buffer (PBS containing 1% Nonidet P40, 0.5% sodium deoxycholate, 0.1% SDS, 0.5 mM Na3VO4 plus freshly added PMSF and protease inhibitor cocktail; Boeringer-Roche), and then 20 μg of lysate protein (per lane) were analyzed by SDS-10% PAGE and Western blot analysis. Antibody concentrations used were: anti-phospho-NF-κB (1:1000) (Santa Cruz Biotechnology, Santa Cruz, Calif.), anti-phospho-Akt (1:5000) (Cell Signaling, CA), anti-cyclin D1 (1:1000) (Cell Signaling, CA), anti-BclXL (1:500) (Santa Cruz Biotechnology), anti-VEGF (1:500) (Santa Cruz Biotechnology), and anti-β-actin (1:1000) (Sigma, St. Louis, Mo.).
# [3] = tested on: A549 (human lung cancer) cells; test: Cell viability assay using MTT, A549; assay type: cell-based; settings: 25 μM and 50 μM, 48 h or 96 h, versus control cells (FIG. 6d)
# Method: Cells. B16F10 (mouse melanoma), GL261 (mouse glioma), HOG (human oligodendroglioma), A549 (human lung cancer), and N18 (mouse neuroblastoma) cells were cultured separately in DMEM containing 10% (v/v) fetal bovine serum and 1% (v/v) penicillin-streptomycin (PS) and allowed to grow to 40% confluence in a 96-well plate.
# Curcumin Treatment. Two hours before drug treatment, the medium in each well was replaced with 200 μl Neurobasal medium supplemented with 2% (v/v) B27 and 1% (v/v) PS (Drug-treatment Medium). A stock solution (40 mM) of curcumin was prepared in sterile dimethyl sulfoxide (DMSO) (Example 1). Through serial dilution of each stock solution in Drug-treatment Medium, the following concentrations were obtained: 20 μM and 50 μM (for caspase 3/7 assays) or 25 μM and 50 μM (for MTT assays). […] Additionally, the background absorbance was determined from parallel wells containing only the Drug-treatment Medium plus a particular concentration of the drug (no cells).
# Cell Viability Assay Using MTT (3-(4,5-Dimethylthiazolyl-2)-2,5-Diphenyltetrazolium Bromide). […] Absorbance was measured at 570 nm using a 96-well multi scanner auto-reader with the extraction buffer used as blank. For curcumin samples, the absorbance obtained from the corresponding curcumin plus medium samples was subtracted.
smiles,measurement,setting,value
COc1cc(/C=C/C(=O)CC(=O)/C=C/c2ccc(O)c(OC)c2)ccc1O [curcumin],brain tumor formation and morbidity,"[1]; B16F10 cells in right frontal lobe, 200 μl of 667 μM curcumin daily, tail vein, day 2 to day 19",blocked
same,tissue disintegration (hematoxylin and eosin staining of brain tissue),[1]; curcumin-injected mice (FIG. 8B),completely blocked
same,movement,"[1]; daily curcumin injections, day 20",normal movement
same,movement and behavior,"[1]; daily curcumin injections, days 21, 28, and 39",normal movement and behavior
same,tumors in the right frontal lobe,"[1]; single dose (5 μl of 667 μM, into brain five minutes after B16F10 cells; Mouse 2)",Large tumors were observed
same,condition of mouse,"[1]; single dose (5 μl of 667 μM, into brain five minutes after B16F10 cells; Mouse 2), day 21",hunched up and morbid
same,VEGF (Western blot),[2],suppressed
same,cell viability (MTT),[3],dramatic decrease

# — patent US20100197584A1, “USE OF CURCUMIN TO BLOCK BRAIN TUMOR FORMATION IN MICE” (Research Foundations of the City University of- New York, priority 2007, published 2010)
